Assay results: patent publication US10222368B2 (priority 2012, dated 2019)

Molecular target: T1, mu opiate receptor (MOR) (Rattus norvegicus, UniProt P33535)
T1 construct: from tissue; host or cells: striatal tissue (membrane preparation)
Experiment: MOR agonist activity using [35S]GTPγS binding assay in striatal membranes
Assay type: biochemical
Conditions: for MOR agonist activity, [35S]GTPγS binding, FLNA-binding compound as agonist at 0.1 μM: 0.1 μM compound; for MOR agonist activity, [35S]GTPγS binding, FLNA-binding compound as agonist at 0.1 μM / MOR agonist activity, [35S]GTPγS binding, 1 μM + BFNA / MOR agonist activity, [35S]GTPγS binding, FLNA-binding compound as agonist at 1 μM: striatal membranes; for MOR agonist activity, [35S]GTPγS binding, FLNA-binding compound as agonist at 0.1 μM / MOR agonist activity, [35S]GTPγS binding, FLNA-binding compound as agonist at 1 μM: Series C-2; for MOR agonist activity, [35S]GTPγS binding, 1 μM + BFNA: 1 μM compound + 1 μM β-FNA (MOR antagonist); for MOR agonist activity, [35S]GTPγS binding, FLNA-binding compound as agonist at 1 μM: 1 μM compound; for % DAMGO + BFNA: 1 μM compound + BFNA relative to DAMGO + BFNA; for % DAMGO (0.1 μM): 0.1 μM compound relative to DAMGO (0.1 μM)
Procedure: To assess the mu opiate receptor (MOR) agonist activity of positive compounds from the FLNA screening, compounds were tested in a [^35S]GTPγS binding assay using striatal membranes. […] This assay measures a functional consequence of receptor occupancy at one of the earliest receptor-mediated events. The assay permits for traditional pharmacological parameters of potency, efficacy and antagonist affinity, with the advantage that agonist measures are not subjected to amplification or other modulation that may occur when analyzing parameters further downstream of the receptor.
Thus, striatal tissue was homogenized in 10 volumes of ice cold 25 mM HEPES buffer, pH 7.4, which contained 1 mM EGTA, 100 mM sucrose, 50 μg/ml leupeptin, 0.04 mM PMSF, 2 μg/ml soybean trypsin inhibitor and 0.2% 2-mercaptoethanol. The homogenates were centrifuged at 800×g for 5 minutes and the supernatants were centrifuged at 49,000×g for 20 minutes.
The resultant striatal membrane preparation (200 μg) was admixed and maintained (incubated) at 30° C. for 5 minutes in reaction buffer as above that additionally contained 1 mM MgCl2 and 0.5 nM [^35S]GTPγS (0.1 μCi/assay, PerkinElmer Life and Analytical Sciences) in a total volume of 250 μl and continued for 5 minutes in the absence or presence of 0.1-10 μM of an assayed compound of interest. The reaction was terminated by dilution with 750 μl of ice-cold reaction buffer that contained 20 mM MgCl2 and 1 mM EGTA and immediate centrifugation at 16,000×g for 5 minutes.
Normal rabbit serum (1 μl) was added to 1 ml of lysate and incubated at 25° C. for 30 minutes. Nonspecific immune complexes were removed by incubation with 25 μl of protein A/G-conjugated agarose beads at 25° C. for 30 minutes followed by centrifugation at 5,000×g at 4° C. for 5 minutes. The supernatant was divided and separately incubated at 25° C. for 30 minutes with antibodies raised against Gαo proteins (1:1,000 dilutions).
The immunocomplexes so formed were collected by incubation at 25° C. for 30 minutes with 40 μl of agarose-conjugated protein A/G beads and centrifugation at 5,000×g at 4° C. for 5 minutes. The pellet was washed and suspended in buffer containing 50 mM Tris-HCl, pH 8.0, and 1% NP-40. The radioactivity in the suspension was determined by liquid scintillation spectrometry.

T1 sequence (P33535 whole entry): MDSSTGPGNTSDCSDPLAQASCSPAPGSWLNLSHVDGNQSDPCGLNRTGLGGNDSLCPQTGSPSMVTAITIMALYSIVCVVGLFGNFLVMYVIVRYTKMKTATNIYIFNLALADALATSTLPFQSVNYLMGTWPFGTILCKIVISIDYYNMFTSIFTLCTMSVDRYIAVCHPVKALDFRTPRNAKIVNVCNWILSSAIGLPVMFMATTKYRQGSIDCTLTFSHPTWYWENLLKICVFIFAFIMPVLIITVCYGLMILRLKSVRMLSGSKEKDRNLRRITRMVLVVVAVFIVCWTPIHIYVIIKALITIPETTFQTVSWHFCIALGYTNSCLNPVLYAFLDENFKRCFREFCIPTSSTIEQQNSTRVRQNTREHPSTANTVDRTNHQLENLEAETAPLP

| SMILES | MOR agonist activity, [35S]GTPγS binding, FLNA-binding compound as agonist at 0.1 μM [%] | MOR agonist activity, [35S]GTPγS binding, 1 μM + BFNA [%] | MOR agonist activity, [35S]GTPγS binding, FLNA-binding compound as agonist at 1 μM [%] | % DAMGO + BFNA (Series C-1) [%] | % DAMGO + BFNA (Series B) [%] | % DAMGO (0.1 μM) (Series C-1) [%] |
| --- | --- | --- | --- | --- | --- | --- |
| COc1ccc(S(=O)(=O)N2CCC3(CC2)NCCC(=O)N3)cc1 [Compound C0142M] | 143.7 | 98.7 | 192.5 | – | – | – |
| CC(=O)c1ccc(C(=O)N2CCC3(CC2)OCCN3S(=O)(=O)c2ccc(C(C)=O)cc2)cc1 [Compound C0052] | – | – | – | 97.0 | – | – |
| O=[N+]([O-])c1ccc(S(=O)(=O)N2CCC3(CC2)NCCO3)cc1 [Compound C0040] | 145.8 | 90.4 | 308.3 | – | – | – |
| CC(=O)c1ccc(S(=O)(=O)N2CCC3(CC2)OCCN3S(=O)(=O)c2ccc(C(C)=O)cc2)cc1 [Compound C0011] | 217.0 | 19.0 | 305.0 | – | – | – |
| COc1ccc(S(=O)(=O)N2CCC3(NCCO3)C3CCCCC32)cc1 (stereo not shown) [Compound C0144M-2] | 186.3 | 125.9 | 295.9 | – | – | – |
| CC(=O)c1ccc(S(=O)(=O)N2CC(CN(C)C)OC23CCN(CC2CC2)CC3)cc1 (stereo not shown) [Compound C0128M] | 197.8 | 63.9 | 286.0 | – | – | – |
| COc1c2c(cc3c1C(CC(=O)c1ccc(F)c(F)c1)[N+](C)(C)CC3)OCO2 (stereo not shown) [Compound B0003] | – | – | – | – | 29.0 | – |
| CCCCN1CCC2(CC1)OCCN2S(=O)(=O)c1ccc(OC)cc1 [Compound C0102M] | 131.8 | 150.4 | 272.0 | – | – | – |
| CC(=O)Nc1ccc(S(=O)(=O)N2CCC3(CC2)OCCN3S(=O)(=O)c2ccc(NC(C)=O)cc2)cc1 [Compound C0013] | – | – | – | – | – | 91.0 |
| O=C1CN(C2CCc3ccccc3C2)C2(CCN(S(=O)(=O)c3ccccc3)CC2)N1 (stereo not shown) [C0136M (P5)] | 176.8 | 74.5 | 237.3 | – | – | – |
| CC(=O)N1CCSC12CCN(S(=O)(=O)c1ccc([N+](=O)[O-])cc1)CC2 [Compound C0050] | 110.3 | 59.0 | 127.6 | – | – | – |
| CC(=O)c1ccc(S(=O)(=O)N2CC(=O)NC23CCNCC3)cc1 [Compound C0086M] | 206.8 | 152.3 | 265.3 | – | – | – |
| CC(=O)c1ccc(S(=O)(=O)N2CCOC23CCN(CC(=O)O)CC3)cc1 [Compound C0100M] | 173.6 | 195.6 | 245.9 | – | – | – |
| CC(=O)c1ccc(C(=O)N2CCC3(CC2)OCCN3C(=O)c2ccc(C(C)=O)cc2)cc1 [Compound C0054] | – | – | – | – | – | 47.0 |
